From PMC6214909, “An asparagine/glycine switch governs product specificity of human N-terminal methyltransferase NTMT2” (Communications Biology, 2018)

Experiments:
NTMT1 = assay: MALDI-MS methyltransferase activity assay, NTMT1; type: biochemical, human; details: 2 μM NTMT1, 10 μM peptide, 200 μM SAM, 25 mM Tris–HCl pH 7.5, 50 mM KCl, 37 °C, overnight
Procedure: (§1) A mixture (36 μL) of 2 μM enzyme (NTMT1 or NTMT2), 25 mM Tris–HCl pH 7.5, 50 mM KCl and 200 μM SAM was incubated at 37 °C for 5 min. 4 μL of 100 μM peptide substrate (final concentration 10 μM) was then added to initiate the reaction. The reaction was incubated overnight and then stopped with quenching solution (20 mM NH4H2PO4, 0.4% (v/v) TFA in 1:1 acetonitrile/water). Reaction mixtures were analyzed with an Applied Biosystems Voyager matrix-assisted laser desorption/ionization time-of-flight mass spectrometer. Processing of all spectra results in Data Explorer included application of a noise filter (correlation factor of 1.0) and a baseline correction. Areas of the monoisotopic peaks for all relevant species were combined to obtain a total area for each sample. The fraction of each methylation state was calculated by summing the areas of all the monoisotopic peaks for that state ([M + H]^+, [M + Na]^+, [M + K]^+, [M – H + 2Na]^+, [M – H + 2 K]^+, and [M – H + Na + K]^+) and then dividing by the total area.

NTMT2-N89G mutant = assay: MALDI-MS methyltransferase activity assay, NTMT2-N89G mutant; type: biochemical, human; details: NTMT2-N89G under the same conditions (2 μM enzyme, 10 μM peptide, 200 μM SAM, pH 7.5, 37 °C, overnight)
Procedure: as §1

NTMT2 = target: T1, NTMT2 (Homo sapiens, UniProt Q5VVY1); assay: MALDI-MS methyltransferase activity assay, NTMT2; type: biochemical; details: 2 μM NTMT2, 10 μM peptide, 200 μM SAM, 25 mM Tris–HCl pH 7.5, 50 mM KCl, 37 °C, overnight
T1 construct: DNA encoding human NTMT2 (residues 58–278) was amplified by PCR; SUMO (His8-SUMO of the pET28-MKH8SUMO vector, with TEV site) (N, cleaved yes); made in house; host or cells: Escherichia coli BL21 (DE3)
T1 sequence (Q5VVY1 58-278): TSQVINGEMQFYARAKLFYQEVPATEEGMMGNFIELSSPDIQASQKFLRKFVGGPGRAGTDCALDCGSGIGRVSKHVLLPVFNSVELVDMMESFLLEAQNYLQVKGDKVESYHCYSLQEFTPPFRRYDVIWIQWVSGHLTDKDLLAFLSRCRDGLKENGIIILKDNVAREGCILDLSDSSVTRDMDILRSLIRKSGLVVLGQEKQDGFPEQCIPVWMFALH
Procedure: as §1

Substance | Di-methylated fraction (NTMT1) | Mono-methylated fraction (NTMT1) | Trimethylated fraction (NTMT1) | Unmethylated fraction (NTMT1) | Di-methylated fraction (NTMT2-N89G mutant) | Mono-methylated fraction (NTMT2-N89G mutant) | Trimethylated fraction (NTMT2-N89G mutant) | Unmethylated fraction (NTMT2-N89G mutant) | Di-methylated fraction (NTMT2) | Mono-methylated fraction (NTMT2) | Trimethylated fraction (NTMT2) | Unmethylated fraction (NTMT2)
APKRIA [synthetic XPKRIA hexapeptide substrate, X = A] | 0.00% | 0.00% | 100.00% | 0.00% | 26.21% | 71.86% | 1.93% | 0.00% | 0.00% | 32.17% | 0.00% | 67.83%
DPKRIA [synthetic XPKRIA hexapeptide substrate, X = D] | 0.00% | 9.37% | 0.00% | 90.64% | 0.00% | 0.00% | 0.00% | 100.00% | 0.00% | 0.00% | 0.00% | 100.00%
HPKRIA [synthetic XPKRIA hexapeptide substrate, X = H] | 100.00% | 0.00% | 0.00% | 0.00% | 1.61% | 98.39% | 0.00% | 0.00% | 0.00% | 39.05% | 0.00% | 60.95%

Next, values leading:

Di-methylated fraction (NTMT1) | Mono-methylated fraction (NTMT1) | Trimethylated fraction (NTMT1) | Unmethylated fraction (NTMT1) | Di-methylated fraction (NTMT2-N89G mutant) | Mono-methylated fraction (NTMT2-N89G mutant) | Trimethylated fraction (NTMT2-N89G mutant) | Unmethylated fraction (NTMT2-N89G mutant) | Di-methylated fraction (NTMT2) | Mono-methylated fraction (NTMT2) | Trimethylated fraction (NTMT2) | Unmethylated fraction (NTMT2) | Substance
44.61% | 27.87% | 0.00% | 27.51% | 0.00% | 63.38% | 0.00% | 36.62% | 0.00% | 25.20% | 0.00% | 74.80% | CPKRIA [synthetic XPKRIA hexapeptide substrate, X = C]
0.00% | 10.70% | 0.00% | 89.30% | 0.00% | 0.00% | 0.00% | 100.00% | 0.00% | 0.00% | 0.00% | 100.00% | EPKRIA [synthetic XPKRIA hexapeptide substrate, X = E]
97.34% | 0.00% | 2.66% | 0.00% | 0.00% | 100.00% | 0.00% | 0.00% | 0.00% | 50.22% | 0.00% | 49.78% | FPKRIA [synthetic XPKRIA hexapeptide substrate, X = F]
0.00% | 0.00% | 100.00% | 0.00% | 19.61% | 6.64% | 60.27% | 13.49% | 20.14% | 15.31% | 27.94% | 36.61% | GPKRIA [synthetic XPKRIA hexapeptide substrate, X = G]
